Measurements reported in patent publication US12484574B2, “Agent for promoting undifferentiation and cryoprotective agent using aprotic zwitterion” (JAPAN SCIENCE AND TECHNOLOGY AGENCY, priority 2019, dated 2025).
Marks after values point to notes of the source that are not given here.

Key:
[1] = Glass transition temperature and heat quantity by differential scanning calorimetry (DSC); type: physicochemical; conditions: 10 wt % in purified water, cooling −1° C./min, heating 5° C./min
Protocol: The glass transition temperature and the heat quantity were determined by differential scanning calorimetry (DSC). The measurement was performed with a cooling rate set to −1° C./min an d a heating rate set to 5° C./min.

Wild-type zebrafish AB* = experiment: Influence on development of zebrafish; type: in vivo; conditions: for Survival rate: fertilized eggs cultured 1.5 to 24 hours
Protocol: All experiments were conducted based on a protocol approved by the animal experiment committee of Kanazawa University. Wild-type zebrafish AB* was raised at 28.5° C. with 14-hour light/10-hour dark cycles in a circulating water system. The medium used was E3 medium (5 mM NaCl, 0.17 mM KCl, 0.33 mM CaCl2, 0.33 mM MgSO4). The medium was supplemented with 1%, 2%, 5% or 10% DMSO or HLS (OE2imC3C). For each test group, eggs were fertilized and then cultured for 1.5 to 24 hours. The embryos thus cultured were washed with E3 medium twice and treated with 1-phenyl-2-thiourea (FUJIFILM Wako Pure Chemical Corp.) in order to prevent pigmentation. The embryos were stained with 0.6 mg/mL o-dianisidine (Tokyo Chemical Industry Co., Ltd.) for 15 minutes and fixed in 4% paraformaldehyde (FUJIFILM Wako Pure Chemical Corp.). The embryos were washed with phosphate-buffered saline containing 0.1% Tween (Sigma-Aldrich Co. LLC) twice. The survival rate was similar between DMSO and HLS (OE2imC3C) up to the 2% addition groups, whereas the survival rate differed largely therebetween in the 5% addition groups.

human fibroblasts = experiment: Influence on cell cycle (Click-iT Plus EdU cell proliferation assay); type: cell-based; conditions: 2% addition; compared with no addition; FIG. 11
Protocol: The cells used were human fibroblasts.
The test groups were 1% addition groups and 2% addition groups of DMSO and HLS (OE2imC3C) vs. a control.
Cell cycle analysis was conducted using Click-iT® Plus EdU cell proliferation assay (Thermo Fisher Scientific Inc.) containing 5-ethynyl-2′-deoxyuridine (EdU) according to the manufacturer's protocol. The cells were incubated in 10 μM EdU for 1 hour, treated with trypsin, then fixed in 4% PFA, and labeled with Alexa Fluor 647 picolyl azide. The cells were stained with 4′,6-diamidino-2-phenylindole (DAPI) and analyzed with BD FACSAria™ III (BD Biosciences).

Human renal cell = experiment: Cell freezing experiment 4 (slow freezing), viable cell count as ratio to OE2imC3C; type: cell-based; conditions: −80° C., −1° C./min
Protocol: (§1) As for the cryopreservation solution, the aprotic zwitterion of each example was dissolved by the addition of purified water to prepare test solutions containing 5% by weight and 10% by weight of the aprotic zwitterion.
(§2) The cells to be frozen were centrifugally recovered by trypsin treatment and diluted with Dulbecco's modified Eagle medium (DMEM), and each cell concentration was measured. The types and cell concentrations of the cells are as follows. • Mouse skin fibroblasts 5.0×10^5 cells/100 μl • Human renal fat cells 5.0×10^5 cells/100 μl
(§3) Subsequently, the cells of each type were dispensed at 1 ml/tube to 1.5 ml tubes, centrifuged, suspended in 100 μl each of the cryopreservation solutions described above, and frozen at a cooling temperature of −80° C. at a cooling rate of −1° C./min using a cell freezing container Mr. Frosty®.
(§4) 1 ml of a medium was added to the cryopreservation vial for thawing, and a supernatant was removed by centrifugation. Subsequently, the cells obtained by centrifugation were resuspended in a medium, followed by the measurement of a viable cell count. The results are indicated by a ratio to the viable cell count of OE2imC3C.

Mouse skin fibroblast = experiment: as above; type: cell-based; conditions: −80° C., −1° C./min
Protocol: as §1, §2, §3, §4

Row | SMILES | Heat quantity [1] | Tg [1] | other results
1 | C=CCn1cc[n+](CCCC(=O)[O-])c1 [AimC3C] | -188.37 J/g | −85 °C | 
2 | C=CCn1cc[n+](CCCS(=O)(=O)[O-])c1 [AimC3S] | -213.16 J/g | −85.76 °C | 
3 | C=CCn1cc[n+](CCCCS(=O)(=O)[O-])c1 [AimC4S] | -210.34 J/g | −86.07 °C | 
4 | C[S+](C)[O-] [DMSO, dimethyl sulfoxide] |  |  | development of surviving fertilized eggs (abnormality) (Wild-type zebrafish AB*; 5 % v/v in E3 medium): did not normally develop; Survival rate (Wild-type zebrafish AB*; Concentration 1 % (v/v for DMSO, w/v for HLS) in E3 medium): 27/27; Survival rate (Wild-type zebrafish AB*; Concentration 2 % (v/v for DMSO, w/v for HLS) in E3 medium): 27/27; Survival rate (Wild-type zebrafish AB*; Concentration 5 % (v/v for DMSO, w/v for HLS) in E3 medium): 4/27*; Survival rate (Wild-type zebrafish AB*; Concentration 10 % (v/v for DMSO, w/v for HLS) in E3 medium): 0/27; influence on cell cycle (G0/G1 phase, S phase) (human fibroblasts): prolonged the G0/G1 phase and drastically shortened the S phase
5 | Cn1cc[n+](CCCS(=O)(=O)[O-])c1 [Example C1imC3S] | -173.36 J/g | −88.88 °C | 
6 | C[n+]1ccn(CCCCCC(=O)[O-])c1 [Example C1imC5C] | -169.61 J/g | −84.51 °C | viable cell count, ratio to the viable cell count of OE2imC3C (Human renal cell; 5 wt % in purified water): 1.94; viable cell count, ratio to the viable cell count of OE2imC3C (Human renal cell; 10 wt % in purified water): 0.72; viable cell count, ratio to the viable cell count of OE2imC3C (Mouse skin fibroblast; 5 wt % in purified water): 0.82; viable cell count, ratio to the viable cell count of OE2imC3C (Mouse skin fibroblast; 10 wt % in purified water): 1.09
7 | CCCCn1cc[n+](CCCC(=O)[O-])c1 [Example C4imC3C] | -198.66 J/g | −75.3 °C | 
8 | CCCCCCCC[n+]1ccn(CCCS(=O)(=O)[O-])c1 [Example C8imC3S] |  |  | viable cell count, ratio to the viable cell count of OE2imC3C (Human renal cell; 5 wt % in purified water): 0.00; viable cell count, ratio to the viable cell count of OE2imC3C (Human renal cell; 10 wt % in purified water): 0.33; viable cell count, ratio to the viable cell count of OE2imC3C (Mouse skin fibroblast; 5 wt % in purified water): 0.00; viable cell count, ratio to the viable cell count of OE2imC3C (Mouse skin fibroblast; 10 wt % in purified water): 0.04
9 | COCCn1cc[n+](CCCC(=O)[O-])c1 [OE1imC3C] | -188.49 J/g | −86.07 °C | 
10 | COCCOCCn1cc[n+](CCCS(=O)(=O)[O-])c1 [OE2imC3S] | -190.84 J/g | −85.48 °C | 
11 | COCCOCCn1cc[n+](CCCCCC(=O)[O-])c1 [OE2imC5C] | -190.82 J/g | −83.34 °C | 

Now from value to compound, other results behind:

Row | Heat quantity [1] | Tg [1] | SMILES | other results
12 | -199.61 J/g | −95.22 °C | Cn1cc[n+](CCCC(=O)[O-])c1 [Example C1imC3C] | 
13 | -183.73 J/g | −74.59 °C | CCCCn1cc[n+](CCCCCC(=O)[O-])c1 [Example C4imC5C] | 
14 | -187.42 J/g | −84.05 °C | CCCCCCCCn1cc[n+](CCCC(=O)[O-])c1 [Example C8imC3C] | 
15 | -182.67 J/g | −74.96 °C | CCCCCCCCCCCCCC[N+](C)(C)CCCC(=O)[O-] [N1,1,14C3C] | viable cell count, ratio to the viable cell count of OE2imC3C (Human renal cell; 5 wt % in purified water): 0.59; viable cell count, ratio to the viable cell count of OE2imC3C (Human renal cell; 10 wt % in purified water): 0.56; viable cell count, ratio to the viable cell count of OE2imC3C (Mouse skin fibroblast; 5 wt % in purified water): 0.58; viable cell count, ratio to the viable cell count of OE2imC3C (Mouse skin fibroblast; 10 wt % in purified water): 0.77
16 | -182.59 J/g | −90.35 °C | O=C([O-])CCC[n+]1ccccc1 [PyC3C] | 
17 | -188.06 J/g | −91.85 °C | C[N+]1(CCCC(=O)[O-])CCCC1 [PyrrC3C] | 
18 | -182.17 J/g | −85.74 °C | C=Cn1cc[n+](CCCC(=O)[O-])c1 [VimC3C] | 
19 | -170.72 J/g | −81.06 °C | C=Cn1cc[n+](CCCS(=O)(=O)[O-])c1 [VimC3S] | 
